Measurements taken from patent publication US10913727B2, “Modulators of the integrated stress pathway” (Calico Life Sciences LLC, priority 2016, dated 2021).

Test system: HEK293T cells carrying the ATF4 luciferase reporter
Experiment: ATF4-Luc assay, in vitro model of Vanishing Cell White Matter Disease (VWMD)
Type: cell-based
Details: Homo sapiens, HEK-293T, 1 μg/mL tunicamycin, 7 hours, One Glo luminescence
How it was run: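 Reporter cells were stably generated by retroviral transduction and puromycin selection, then seeded at 30,000 cells/well. Next day, cells received 1 μg/mL tunicamycin with 200 nM test compound for 7 h, and luciferase luminescence was read with a one-step reagent. Values reported as EC50.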

For `CCn1cncc1C(=O)NC12CC(NC(=O)COc3ccc(Cl)c(F)c3)(C1)C2` [Compound 775, N-{3-[2-(4-chloro-3-fluorophenoxy)acetamido]bicyclo[1.1.1]pentan-1-yl}-1-ethyl-1H-imidazole-5-carboxamide], the EC50 was > 2 µM.

With `O=C(COc1ccc(Cl)c(Cl)c1)NC12CC(NC(=O)c3cccnc3)(C1)C2` [Compound 456, N-{3-[2-(3,4-dichlorophenoxy)acetamido]bicyclo[1.1.1]pentan-1-yl}pyridine-3-carboxamide] the EC50 was 0.05 to 0.25 µM.

Work on `O=C(COc1ccc(Cl)c(F)c1)NC12CC(NC(=O)c3cc(N4CCOCC4)ccn3)(C1)C2` [Compound 180, N-{3-[2-(4-chloro-3-fluorophenoxy)acetamido]bicyclo[1.1.1]pentan-1-yl}-4-(morpholin-4-yl)pyridine-2-carboxamide] yielded an EC50 of 1 to 2 µM.

With `O=C(COc1ccc(Cl)c(F)c1)NC12CCC(NC(=O)c3ccc(-c4ccc(F)cc4)cn3)(CC1)CC2O` (stereo not shown) [Compound 939, N-{4-[2-(4-chloro-3-fluorophenoxy)acetamido]-3-hydroxybicyclo[2.2.2]octan-1-yl}-5-(4-fluorophenyl)pyridine-2-carboxamide] the EC50 was > 2 µM.

For `Cc1cc2c(NC34CC(NC(=O)COc5cccc(OC(F)(F)F)c5)(C3)C4)nccn2n1` [Compound 424, N-{3-[(2-methylpyrazolo[1,5-a]pyrazin-4-yl)amino]bicyclo[1.1.1]pentan-1-yl}-2-[3-(trifluoromethoxy)phenoxy]acetamide], the EC50 was 1 to 2 µM.

`COc1cccc(C(=O)NC23CC(NC(=O)COc4ccc(Cl)c(F)c4)(C2)C3)c1F` [Compound 519, N-{3-[2-(4-chloro-3-fluorophenoxy)acetamido]bicyclo[1.1.1]pentan-1-yl}-2-fluoro-3-methoxybenzamide] gave an EC50 of 0.05 to 0.25 µM.

For `COc1cc(C(=O)NC23CC(NC(=O)COc4ccc(Cl)c(F)c4)(C2)C3)ccn1` [Compound 763, N-{3-[2-(4-chloro-3-fluorophenoxy)acetamido]bicyclo[1.1.1]pentan-1-yl}-2-methoxypyridine-4-carboxamide], the EC50 was > 2 µM.

`Cc1cc(C(=O)NC23CCC(NC(=O)COc4ccc(Cl)c(F)c4)(CC2)CC3O)on1` (stereo not shown) [Compound 330, N-{4-[2-(4-chloro-3-fluorophenoxy)acetamido]-2-hydroxybicyclo[2.2.2]octan-1-yl}-3-methyl-1,2-oxazole-5-carboxamide] showed an EC50 of 0.05 to 0.25 µM.

With `O=C(COc1ccc(Cl)c(Cl)c1)NC12CC(NC(=O)c3cccc(CO)n3)(C1)C2` [Compound 165, N-{3-[2-(3,4-dichlorophenoxy)acetamido]bicyclo[1.1.1]pentan-1-yl}-6-(hydroxymethyl)pyridine-2-carboxamide] the EC50 was > 2 µM.

`Cc1cncc(C(=O)NC23CC(NC(=O)COc4ccc(Cl)c(Cl)c4)(C2)C3)c1` [Compound 645, N-{3-[2-(3,4-dichlorophenoxy)acetamido]bicyclo[1.1.1]pentan-1-yl}-5-methylpyridine-3-carboxamide] gave an EC50 of 0.05 to 0.25 µM.

`O=C(COc1ccc(Cl)c(F)c1)NC12CC(NC(=O)c3cnc4sccc4c3)(C1)C2` [Compound 723, N-{3-[2-(4-chloro-3-fluorophenoxy)acetamido]bicyclo[1.1.1]pentan-1-yl}thieno[2,3-b]pyridine-5-carboxamide] gave an EC50 of 0.25 to 1 µM.

For `Cc1cc2ncc(C(=O)NC34CC(NC(=O)COc5ccc(Cl)c(F)c5)(C3)C4)cn2n1` [Compound 748, N-{3-[2-(4-chloro-3-fluorophenoxy)acetamido]bicyclo[1.1.1]pentan-1-yl}-2-methylpyrazolo[1,5-a]pyrimidine-6-carboxamide], the EC50 was 0.25 to 1 µM.

`O=C(COc1ccc(Cl)c(F)c1)NC12CC(NC(=O)c3cnc(-c4ccccc4)o3)(C1)C2` [Compound 344, N-{3-[2-(4-chloro-3-fluorophenoxy)acetamido]bicyclo[1.1.1]pentan-1-yl}-2-phenyl-1,3-oxazole-5-carboxamide] was tested, and the EC50 was < 0.05 µM.

In the case of `O=C(COc1ccc(Cl)c(F)c1)NC12CC(NC(=O)c3ccc4[nH]c(=O)[nH]c4n3)(C1)C2` [Compound 205, N-{3-[2-(4-chloro-3-fluorophenoxy)acetamido]bicyclo[1.1.1]pentan-1-yl}-2-oxo-2,3-dihydro-1H-imidazo[4,5-b]pyridine-5-carboxamide], the EC50 is reported as > 2 µM.

For `O=C(COc1ccc(Cl)c(F)c1)NC12CC(NC(=O)c3cnc(C4CC4)o3)(C1)C2` [Compound 583, N-{3-[2-(4-chloro-3-fluorophenoxy)acetamido]bicyclo[1.1.1]pentan-1-yl}-2-cyclopropyl-1,3-oxazole-5-carboxamide], the EC50 was 0.05 to 0.25 µM.

In the case of `O=C(COc1ccc(Cl)c(F)c1)NC12CC(NC(=O)c3cc4ccccc4cn3)(C1)C2` [Compound 660, N-{3-[2-(4-chloro-3-fluorophenoxy)acetamido]bicyclo[1.1.1]pentan-1-yl}isoquinoline-3-carboxamide], the EC50 is reported as 0.25 to 1 µM.

`Cc1ncoc1C(=O)NC12CC(NC(=O)COc3ccc(Cl)c(F)c3)(C1)C2` [Compound 869, N-{3-[2-(4-chloro-3-fluorophenoxy)acetamido]bicyclo[1.1.1]pentan-1-yl}-4-methyl-1,3-oxazole-5-carboxamide] was tested, and the EC50 was > 2 µM.

`Cc1ccc(C(=O)NC23CC(NC(=O)COc4ccc(Cl)c(F)c4)(C2)C3)nn1` [Compound 137, N-{3-[2-(4-chloro-3-fluorophenoxy)acetamido]bicyclo[1.1.1]pentan-1-yl}-6-methylpyridazine-3-carboxamide] showed an EC50 of 1 to 2 µM.

With `O=C(COc1ccc(Cl)c(F)c1)NC12CC(Nc3nnc(-c4ccccc4)o3)(C1)C2` [Compound 404, 2-(4-chloro-3-fluorophenoxy)-N-{3-[(5-phenyl-1,3,4-oxadiazol-2-yl)amino]bicyclo[1.1.1]pentan-1-yl}acetamide] the EC50 was > 2 µM.

With `Cc1cc(C(=O)NC23CC(NC(=O)COc4ccc5c(c4)OC(F)(F)O5)(C2)C3)on1` [Compound 377, N-(3-{2-[(2,2-difluoro-2H-1,3-benzodioxol-5-yl)oxy]acetamido}bicyclo[1.1.1]pentan-1-yl)-3-methyl-1,2-oxazole-5-carboxamide] the EC50 was 0.25 to 1 µM.

For `COCc1cncc(C(=O)NC23CC(NC(=O)COc4ccc(Cl)c(Cl)c4)(C2)C3)c1` [Compound 569, N-{3-[2-(3,4-dichlorophenoxy)acetamido]bicyclo[1.1.1]pentan-1-yl}-5-(methoxymethyl)pyridine-3-carboxamide], the EC50 was < 0.05 µM.

`Cc1ccc(F)c(C(=O)NC23CC(NC(=O)COc4ccc(Cl)c(F)c4)(C2)C3)n1` [Compound 832, N-{3-[2-(4-chloro-3-fluorophenoxy)acetamido]bicyclo[1.1.1]pentan-1-yl}-3-fluoro-6-methylpyridine-2-carboxamide] was tested, and the EC50 was 0.05 to 0.25 µM.

`Cn1nccc1C(=O)NC12CC(NC(=O)COc3ccc(Cl)c(F)c3)(C1)C2` [Compound 388, N-{3-[2-(4-chloro-3-fluorophenoxy)acetamido]bicyclo[1.1.1]pentan-1-yl}-1-methyl-1H-pyrazole-5-carboxamide] showed an EC50 of 0.25 to 1 µM.

In the case of `O=C(COc1ccc(Cl)c(F)c1)NC12CC(NC(=O)c3cnn(C(F)F)c3)(C1)C2` [Compound 724, N-{3-[2-(4-chloro-3-fluorophenoxy)acetamido]bicyclo[1.1.1]pentan-1-yl}-1-(difluoromethyl)-1H-pyrazole-4-carboxamide], the EC50 is reported as 0.25 to 1 µM.

`O=C(COc1ccc(Cl)c(F)c1)NC12CC(NC(=O)c3ccon3)(C1)C2` [Compound 820, N-{3-[2-(4-chloro-3-fluorophenoxy)acetamido]bicyclo[1.1.1]pentan-1-yl}-1,2-oxazole-3-carboxamide] was tested, and the EC50 was > 2 µM.

`Cc1cc(C(=O)NC23CCC(NC(=O)COc4ccc(F)c(F)c4)(CC2)C(=O)C3)on1` [Compound 461, N-{4-[2-(3,4-difluorophenoxy)acetamido]-3-oxobicyclo[2.2.2]octan-1-yl}-3-methyl-1,2-oxazole-5-carboxamide] was tested, and the EC50 was 1 to 2 µM.

`Cc1cc(C(=O)NC23CCC(NC(=O)COc4ccc(Cl)c(F)c4)(CC2)C(O)C3)n(C)n1` (stereo not shown) [Compound 447, N-{4-[2-(4-chloro-3-fluorophenoxy)acetamido]-3-hydroxybicyclo[2.2.2]octan-1-yl}-1,3-dimethyl-1H-pyrazole-5-carboxamide] was tested, and the EC50 was 0.05 to 0.25 µM.

`O=C(COc1ccc(Cl)c(F)c1)NC12CCC(NC(=O)c3ccccc3F)(CC1)[C@@H](O)C2` [Compound 483, N-{(2S)-4-[2-(4-chloro-3-fluorophenoxy)acetamido]-2-hydroxybicyclo[2.2.2]octan-1-yl}-2-fluorobenzamide] gave an EC50 of 0.05 to 0.25 µM.

In the case of `O=C(COc1ccc(Cl)c(F)c1)NC12CC(NC(=O)c3cccc(OC(F)F)c3)(C1)C2` [Compound 764, N-{3-[2-(4-chloro-3-fluorophenoxy)acetamido]bicyclo[1.1.1]pentan-1-yl}-3-(difluoromethoxy)benzamide], the EC50 is reported as > 2 µM.

`O=C(COc1ccc(Cl)c(Cl)c1)NC12CC(NC(=O)c3cnc(C(F)F)cn3)(C1)C2` [Compound 201, N-{3-[2-(3,4-dichlorophenoxy)acetamido]bicyclo[1.1.1]pentan-1-yl}-5-(difluoromethyl)pyrazine-2-carboxamide] was tested, and the EC50 was < 0.05 µM.

`CC(C)c1csc(C(=O)NC23CC(NC(=O)COc4ccc(Cl)c(F)c4)(C2)C3)n1` [Compound 406, N-{3-[2-(4-chloro-3-fluorophenoxy)acetamido]bicyclo[1.1.1]pentan-1-yl}-4-(propan-2-yl)-1,3-thiazole-2-carboxamide] gave an EC50 of 0.05 to 0.25 µM.

For `COc1cccc(C(=O)NC23CCC(NC(=O)COc4ccc(Cl)c(F)c4)(CC2)C(O)C3)n1` (stereo not shown) [Compound 923, N-{4-[2-(4-chloro-3-fluorophenoxy)acetamido]-3-hydroxybicyclo[2.2.2]octan-1-yl}-6-methoxypyridine-2-carboxamide], the EC50 was 0.05 to 0.25 µM.

`N#Cc1cncc(NC23CC(NC(=O)COc4ccc(Cl)c(F)c4)(C2)C3)n1` [Compound 745, 2-(4-chloro-3-fluorophenoxy)-N-{3-[(6-cyanopyrazin-2-yl)amino]bicyclo[1.1.1]pentan-1-yl}acetamide] was tested, and the EC50 was > 2 µM.

`O=C(COc1ccc(Cl)c(F)c1)NC12CC(Nc3nc(Cl)cc4nccn34)(C1)C2` [Compound 428, 2-(4-chloro-3-fluorophenoxy)-N-{3-[(7-chloroimidazo[1,2-c]pyrimidin-5-yl)amino]bicyclo[1.1.1]pentan-1-yl}acetamide] gave an EC50 of 0.25 to 1 µM.
